# Assay results taken from US20130039928A1, “COMPOSITIONS AND METHODS FOR REVERSING CORTICOSTEROID RESISTANCE OR TREATING RESPIRATORY INFECTIONS” (priority 2010, published 2013).
# How the values were obtained:
# [1] = tested on: glucocorticoid receptor; test: Acetylated glucocorticoid receptor levels in alveolar macrophages; assay type: cell-based, human; settings: compared to vehicle control
# Experimental: All immunoblots were performed by using protocols as described previously (Barnes, P. J., N Engl J Med 343, 269-280 (2000)). Rabbit anti-HDAC2 antibody from Santa Cruz Biotechnology (Santa Cruz, Calif.) was used at 1:500 dilutions. Rabbit anti-5-nitroso-cysteine antibody from Alpha diagnostics was used at 1:500 dilutions. Rabbit anti-nitro-tyrosine antibody from Cell Signaling Technology, was used at 1:250 dilution. Rabbit anti-ubiquitin antibody from Santa Cruz Biotechnology (Santa Cruz, Calif.) was used at 1:1000 dilutions. Rabbit anti-GR antibody from Santa Cruz Biotechnology (Santa Cruz, Calif.) was used at a dilution of 1:1000. Rabbit anti-MMP9 antibody from Sigma Aldrich was used at 1:500 dilutions. Rabbit anti-acetyl-lysine antibody from Abcam was used at 1:750 dilutions. Rabbit anti-lamin-B1 from Santa Cruz Biotechnology (Santa Cruz, Calif.) was used at 1:1000 dilutions as a loading control. The Image J program was used for densitometry analyses.
# [2] = tested on: nontypeable Haemophilus influenza (NTHI); settings: wild-type mice after 6 months of chronic exposure to cigarette smoke
# Experimental: (§1) C57BL/6J mice were housed under controlled conditions for temperature and humidity, using a 12-hour light/dark cycle. At 8 weeks of age, mice were exposed to CS for (2.5 h/day for 5 days/week) for 1 week or 6 months using a machine that produces cigarette smoke (TE-10, Teague Enterprises) and reference cigarettes (2R4F) with a total suspended particle concentration of 250 mg/m^3 as previously described (T. E. Sussan et al., Proc Natl Acad Sci USA, (Dec. 22, 2008)). Following exposure to CS, mice were inoculated with PA or NTHI at a dose of 10^3 CFU in 50 μl of PBS intranasally. For sulforaphane administration (0.5 mg/mouse of R, S-sulforaphane in PBS), a nebulizer (Aerogen, Inc., Galway, Ireland) designed specifically for small animals was used.
# BAL fluid analysis and cell counts with differential staining were carried out as described previously (T. Rangasamy et al., J Clin Invest 114, 1248 (November, 2004)). For analyzing bacterial colonization in lungs, 100 μl of BAL fluid were diluted serially in sterile 0.9% NaCl and aseptically plated and cultured on appropriate (blood [PA] or chocolate [NTHI]) agar plates. After 24 h, the number of CFU was counted.
# [3] = tested on: Pseudomonas aeruginosa; settings: alveolar macrophages from mice exposed to CS, ex vivo
# Experimental: (§2) After treatment, macrophages (10^5 cells) were incubated with bacteria (PA or NTHI) for 4 h. Subsequently, 100 μL of cell free culture medium was aseptically plated and cultured on tryptose blood and or chocolate agar plates at 37° C. The number of bacterial colonies was counted after 24 h.
# Bacterial phagocytosis was quantified using a flow cytometry analysis.
# as §1
# [4] = tested on: IL-8 gene; settings: sulforaphane treatment with DEX
# Experimental: (§3) For inducing corticosteroid resistance, PMs were exposed to cigarette smoke condensate (CSC, 100 μg/ml; Murty Pharmaceuticals, Lexington, Ky.) for 16 h. Exposure to S-nitrosoglutathione (GSNO, 10 μM) was limited to 4 h. […] For assessing corticosteroid responsiveness, macrophages were incubated with dexamethasone (1 μM, Sigma) for 1 h followed by LPS (100 ng/ml, Sigma) for additional 4 h.
# Total RNA was extracted from the cells by lysis and specific binding to a silica membrance (Qiagen RNeasy kit, Qiagen, Valencia, Calif.), and qRT-PCR was performed by using primers and probe sets for human IL-8, NQO1, GCLM, and iNOS (Assay-on-Demand, Applied Biosystems, Foster City, Calif.). A real-time fluorescent PCR system (ABI 7000 Taqman system, Applied Biosystems) was used to perform these assays. β-actin was used as the normalization control.
# [5] = tested on: Pseudomonas aeruginosa; test: Clearance of bacteria in vitro by alveolar macrophages (PA); assay type: cell-based
# Experimental: Human alveolar macrophages were purified from individual BAL samples by centrifugation and seeded onto 6-well tissue culture plates. After incubation for 2 h, non-adherent cells were removed and the adherent cells were incubated with R, S-sulforaphane (5 μM; LKT Laboratories, Inc., St. Paul, Minn.) and or DMSO in RPMI 1640 culture medium with 10% FBS and 1% penicillin-streptomycin (Invitrogen, Carlsbad, Calif.). After 16-20 h, adherent cells were scraped, suspended in RPMI 1640 culture media and plated onto 96-well tissue culture plates for bacterial phagocytosis and clearance assays. […] For MARCO antibody-depletion, alveolar macrophages were incubated with human anti-MARCO antibody (1 μg/ml; (Hycult, Uden, The Netherlands) for 4 hours prior to bacterial challenge.
# Sputum isolates of nontypeable H. influenzae and P. aeruginosa obtained from patients with COPD at the Department of Veterans Affairs, Western New York Healthcare System were used (S. Sethi, N. Evans, B. J. Grant, T. F. Murphy, N Engl J Med 347, 465 (Aug. 15, 2002); C. S. Berenson, M. A. Garlipp, L. J. Grove, J. Maloney, S. Sethi, J Infect Dis 194, 1375 (Nov. 15, 2006); T. F. Murphy et al., Am J Respir Crit Care Med 177, 853 (Apr. 15, 2008); T. F. Murphy, A. L. Brauer, A. T. Schiffmacher, S. Sethi, Am J Respir Crit Care Med 170, 266 (Aug. 1, 2004)). For bacterial growth, H. influenzae was cultured on chocolate agar or grown in brain heart infusion broth supplemented with 20 μg/mlNAD and 10 μg/ml hemin at 35° C. in 5% CO2. P. aeruginosa was cultured on LB agar plates or in LB broth at 37° C. For FITC-labeling of bacteria, heat inactivated PA and NTHI (10^9 CFU/ml) were resuspended in 1 ml of labeling buffer (0.1 M NaHCO3, pH 9.2) and incubated with fluorescein isothiocyanate (FITC) (Sigma) under constant stiffing in the dark at room temperature for 1 h. Finally, bacteria were washed three times with PBS and dialyzed overnight against PBS. FITC-labeled bacteria were resuspended with PBS at a concentration of 10^9/ml.
# as §2
# [6] = tested on: HDAC2; settings: CSC-exposed PMs
# Experimental: Mice (C57BL/6 strain, 8-10 weeks old) were used for the studies. Exposure to CS (1 month) was carried out as described previously (Malhotra, D., et al., Am J Respir Crit Care Med 178, 592-604 (2008)). Residential peritoneal macrophages (PMs) isolation was carried out as described previously (Singh, A., et al., PLoS Med 3, e420 (2006)). Alveolar macrophages from mouse were isolated from bronchoalveolar lavage (BAL) fluid (Crimi, E., et al., Free Radic Biol Med 40, 398-406 (2006)).
# as §3
# [7] = tested on: MARCO; settings: alveolar macrophages from mice exposed to CS
# Experimental: as §1
structure (smiles),measurement,setting,value
C[S+]([O-])CCCCN=C=S (stereo not drawn) [sulforaphane],levels of acetylated-glucocorticoid receptor,[1],significant decrease in the levels of acetylated-glucocorticoid receptor
same,bacterial colonization (NTHI) in the lungs,[2],inhibited bacterial colonization
same,bacterial phagocytic ability and clearance,[3],increased bacterial phagocytic ability and clearance
same,expression of the IL-8 gene,[4],concomitant reduction
same,clearance of Pseudomonas aeruginosa (decrease in CFU in culture medium),"[5]; COPD alveolar macrophages, compared to vehicle, 4 h with bacteria",40-95%
same,bacterial clearance,[5]; alveolar macrophages from non-COPD subjects,significantly enhanced bacterial clearance
same,bactericidal activity towards Pseudomonas aeruginosa,[5]; cell-free medium with sulforaphane alone,no bactericidal activity
same,levels of SNO-HDAC2,[6],significant reduction in the levels of SNO-HDAC2
same,MARCO expression,[7],increased MARCO expression
